Laboratory results from US7524504B1, “Anti-glycation hydrolysate of G. lucidum” (priority 2008, dated 2009).

Tested on: AGE-related proteins
Experiment: Inhibition of AGE-related proteins (HSA + glucose incubation, fluorescence)
Type: biochemical, human
Conditions: 7 days of incubation
Experimental: Inhibition of AGE-related proteins was assayed according to the following method. First, a reaction mixture was prepared by mixing 20 mg/ml of human serum albumin (HSA) in 200 mM phosphate buffer (pH 7.4) with 500 mM [90.08 mg/ml] of glucose and 0.02% [0.2 mg/ml] sodium azide (as a preservative). The reaction mixture was incubated at 37° C. for three weeks, during which time AGE-related proteins were produced via a Maillard-type reaction. After 7, 14 and 21 days, aliquots of the reaction mixture were passed through a molecular weight sieve (PD-10 column) and equilibrated in water to remove free glucose and Schiff base. […] The latter reaction generates fluorescent by-products with fluorescence proportional to the amount of accumulated AGE-related proteins as determined with a microplate fluorescence reader (Bio-Tek FL600) at an excitation wavelength of 360 nm and an emission wavelength of 440 nm.
To aliquots of the initial reaction mixture capable of producing AGE-related endproducts as described above were added varying concentrations of extract of G. lucidum according to the present invention (i.e., hydrolyzed with acid protease of R. miehei and thereafter rendered substantially devoid of acid protease activity). […] Fluorescence was measured after 7 days of incubation in the reaction mixture as set out above.

Question: Which results are given for `N=C(N)NN` [aminoguanidine, Aminoguanidine]?
Answer: Fluorescence (at 440 nm), normalized to 100 (100 mM + Positive Control): 73; Fluorescence (at 440 nm), normalized to 100 (200 mM + Positive Control): 45
